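Each compound was tested at five concentrations against cells in 96-well plates for 48 hours. Definition used: TGI = concentration required for complete inhibition of growth.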
Legend:
Assay in all cases: growth of human tumour cells (NCI), 48 h
[1] = test system: DU-145 prostate
[2] = test system: COLO 205 colon
[3] = test system: HCC-2998 colon
[4] = test system: HL-60(TB) leukemia
[5] = test system: MDA-N
[6] = test system: HCT-116 colon
[7] = test system: MDA-MB-435
[8] = test system: MCF7 breast
[9] = test system: SN12C renal
[10] = test system: K-562 leukemia
[11] = test system: U251 CNS
[12] = test system: UO-31 renal
[13] = test system: SF-539 CNS
[14] = test system: SK-OV-3 ovarian
[15] = test system: M14 melanoma
[16] = test system: UACC-257 melanoma
[17] = test system: HCT-15 colon
[18] = test system: RXF 393 renal
[19] = test system: SF-268 CNS
[20] = test system: HOP-92 NSCLC
[21] = test system: NCI-H23 lung
[22] = test system: TK-10 renal
[23] = test system: ACHN renal
[24] = test system: SNB-19 CNS
[25] = test system: SK-MEL-5 melanoma
[26] = test system: RPMI-8226 leukemia
[27] = test system: SNB-75 CNS
[28] = test system: OVCAR-3 ovarian
[29] = test system: NCI-H460 lung
[30] = test system: HOP-62 NSCLC
[31] = test system: SK-MEL-28 melanoma
[32] = test system: KM12 colon
[33] = test system: OVCAR-4 ovarian
[34] = test system: MDA-MB-231 breast
[35] = test system: A549 NSCLC
[36] = test system: SW-620 colon
[37] = test system: OVCAR-5 ovarian
[38] = test system: SK-MEL-2 melanoma
[39] = test system: NCI/ADR-RES ovarian
[40] = test system: UACC-62 melanoma
[41] = test system: HT29 colon
[42] = test system: A498 renal
[43] = test system: SR leukemia
[44] = test system: T-47D breast
[45] = test system: HS 578T breast
[46] = test system: 786-0 renal
[47] = test system: MALME-3M melanoma
[48] = test system: NCI-H226 lung
[49] = test system: BT-549 breast
[50] = test system: LOX IMVI melanoma
[51] = test system: OVCAR-8 ovarian
[52] = test system: CAKI-1 renal
[53] = test system: EKVX NSCLC
[54] = test system: IGROV1 ovarian
[55] = test system: NCI-H522 lung
[56] = test system: MOLT-4 leukemia
[57] = test system: SF-295 CNS
[58] = test system: CCRF-CEM leukemia
[59] = test system: PC-3 prostate

COc1ccc(-c2cn3c(nc4ccccc43)c(/C=C/c3cccs3)n2)cc1
TGI [1]: > 100 µM
TGI [2]: > 100 µM
TGI [3]: > 100 µM
TGI [4]: 89.7 µM
TGI [5]: 25.1 µM
TGI [6]: > 100 µM
TGI [7]: 36.5 µM
TGI [8]: > 100 µM
TGI [9]: > 100 µM
TGI [10]: > 100 µM
TGI [11]: > 100 µM
TGI [12]: > 100 µM
TGI [13]: > 100 µM
TGI [14]: > 100 µM
TGI [15]: > 100 µM
TGI [16]: > 100 µM
TGI [17]: > 100 µM
TGI [18]: > 100 µM
TGI [19]: > 100 µM
TGI [20]: > 100 µM
TGI [21]: > 100 µM
TGI [22]: > 100 µM
TGI [23]: > 100 µM
TGI [24]: > 100 µM
TGI [25]: > 100 µM
TGI [26]: 44.1 µM
TGI [27]: > 100 µM
TGI [28]: > 100 µM
TGI [29]: > 100 µM
TGI [30]: > 100 µM
TGI [31]: > 100 µM
TGI [32]: > 100 µM
TGI [33]: > 100 µM
TGI [34]: > 100 µM
TGI [35]: > 100 µM
TGI [36]: > 100 µM
TGI [37]: > 100 µM
TGI [38]: 45.6 µM
TGI [39]: 51.7 µM
TGI [40]: > 100 µM
TGI [41]: > 100 µM
TGI [42]: > 100 µM
TGI [43]: 15.4 µM
TGI [44]: > 100 µM
TGI [45]: > 100 µM
TGI [46]: > 100 µM
TGI [47]: > 100 µM
TGI [48]: > 100 µM
TGI [49]: > 100 µM
TGI [50]: > 100 µM

CCC1=C(C)C(=O)N/C1=C\c1[nH]c(C)c([C@H](C)CCN)c1C
TGI [1]: 32.5 µM
TGI [2]: 31.1 µM
TGI [51]: 28.8 µM
TGI [4]: 42.4 µM
TGI [5]: 29.1 µM
TGI [6]: 27.6 µM
TGI [7]: 29.6 µM
TGI [8]: 32.9 µM
TGI [9]: 29.8 µM
TGI [52]: 32.3 µM
TGI [10]: > 100 µM
TGI [11]: 28.9 µM
TGI [53]: 28.1 µM
TGI [12]: 29.2 µM
TGI [13]: 15.5 µM
TGI [14]: 31.5 µM
TGI [15]: 30.4 µM
TGI [54]: 32 µM
TGI [17]: 28.6 µM
TGI [19]: 30.4 µM
TGI [20]: 28.6 µM
TGI [21]: 26.8 µM
TGI [23]: 32.9 µM
TGI [25]: 31.4 µM
TGI [55]: 24.4 µM
TGI [26]: > 100 µM
TGI [27]: 22.6 µM
TGI [28]: 30.1 µM
TGI [29]: 35.5 µM
TGI [30]: 32.7 µM
TGI [31]: 32.5 µM
TGI [56]: > 100 µM
TGI [32]: 30.7 µM
TGI [33]: 26.7 µM
TGI [34]: 32.7 µM
TGI [57]: 31.5 µM
TGI [35]: 34.3 µM
TGI [36]: 35.1 µM
TGI [37]: 31.7 µM
TGI [38]: 35.1 µM
TGI [39]: 49 µM
TGI [40]: 31.5 µM
TGI [41]: 29.6 µM
TGI [42]: 33.4 µM
TGI [43]: > 100 µM
TGI [44]: 26.2 µM
TGI [58]: > 100 µM
TGI [45]: 28.6 µM
TGI [46]: 28.9 µM
TGI [47]: 32.8 µM
TGI [48]: 31.8 µM
TGI [49]: 29.9 µM
TGI [50]: 28.7 µM

O=C(Nc1c(Cl)cccc1Cl)c1c(Cl)c(Cl)c(Cl)c(Cl)c1-c1nc2ccccc2[nH]1
TGI [1]: > 100 µM
TGI [2]: > 100 µM
TGI [51]: > 100 µM
TGI [3]: > 100 µM
TGI [4]: > 100 µM
TGI [5]: > 100 µM
TGI [6]: > 100 µM
TGI [7]: > 100 µM
TGI [8]: > 100 µM
TGI [9]: > 100 µM
TGI [52]: > 100 µM
TGI [10]: > 100 µM
TGI [53]: > 100 µM
TGI [12]: > 100 µM
TGI [13]: > 100 µM
TGI [14]: > 100 µM
TGI [15]: > 100 µM
TGI [54]: > 100 µM
TGI [16]: > 100 µM
TGI [17]: > 100 µM
TGI [18]: 45.2 µM
TGI [19]: > 100 µM
TGI [20]: > 100 µM
TGI [21]: > 100 µM
TGI [59]: > 100 µM
TGI [23]: > 100 µM
TGI [25]: > 100 µM
TGI [55]: > 100 µM
TGI [26]: > 100 µM
TGI [27]: 84.9 µM
TGI [28]: > 100 µM
TGI [29]: > 100 µM
TGI [30]: > 100 µM
TGI [31]: > 100 µM
TGI [56]: > 100 µM
TGI [32]: > 100 µM
TGI [33]: > 100 µM
TGI [57]: > 100 µM
TGI [35]: > 100 µM
TGI [36]: > 100 µM
TGI [37]: > 100 µM
TGI [38]: > 100 µM
TGI [39]: > 100 µM
TGI [40]: > 100 µM
TGI [41]: > 100 µM
TGI [42]: 54.6 µM
TGI [43]: > 100 µM
TGI [44]: > 100 µM
TGI [58]: > 100 µM
TGI [45]: > 100 µM
TGI [46]: > 100 µM
TGI [47]: > 100 µM
TGI [48]: > 100 µM
TGI [49]: > 100 µM
TGI [50]: > 100 µM
